One experiment addresses T1, PI3Kβ (Homo sapiens, UniProt P42338).
T1 construct: purchased Reaction Biology Corporation
In words: PI3Kβ isoform profiling (PI3Kδ protocol). The class given is biochemical. The settings on record: for IC50: 10 dose IC50; for PI3Kβ @ 0.3 μM (% Inh): 0.3 μM compound. An excerpt:
(§1) PI3Kδ assay: The PIP3 product is detected by displacement of biotin-PIP3 from an energy transfer complex consisting of Europium labeled anti-GST monoclonal antibody, a GST-tagged pleckstrin homology (PH) domain, biotinylated PIP3 and Streptavidin-Allophycocyanin (APC). Excitation of Europium in the complex results in an energy transfer to the APC and a fluorescent emission at 665 nm. The PIP3 product formed by PI 3-Kinase(h) activity displaces biotin-PIP3 from the complex resulting in a loss of energy transfer and thus a decrease in signal. This is a 3-step reaction: First, the kinase reaction with PIP2 substrate is carried out in the presence of ATP (10 μM), and the reaction is quenched with stop Solution, and then finally detect by adding Detection Mixture followed by incubation (10 min). Reaction procedure: 1) Prepare substrate in freshly prepared Reaction Buffer. 2) Deliver kinase into the substrate solution and gently mix. 3) Deliver compounds in 100% DMSO (1 μM) into the kinase reaction mixture by Acoustic technology (Echo550; nanoliter range), incubate for 10 min at RT. 4) Deliver ATP into the reaction mixture to initiate the reaction. 5) Incubate for 30 min at 30° C. 6) Quench the reaction with Stop Solution. 7) Add Detection Mixture, and incubate for overnight. 8) Measure HTRF: Ex=320 nm, ratio of Em=615 nm and Em=665 nm. The emission ratio is converted into μM PIP3 production based on PIP3 standard curves. The nonlinear regression to obtain the standard curve and IC50 values are performed using Graphpad Prism software. Assay Buffer: HEPES 50 mM (pH7.0), NaN3 0.02%, BSA 0.01%, Orthovanadate 0.1 mM, 1% DMSO. Detection buffer: HEPES 10 mM (pH7.0), BSA 0.02%, KF 0.16 M, EDTA 4 mM. Substrate: 10 μM PIP2 substrate (PI(4,5)P2).
(§2) Compounds of the invention were profiled in a 10 dose IC50 panel against PI3Kα, PI3Kβ, and PI3Kγ kinases, provided by Reaction Biology Corporation, applied to the PI3Kδ protocol provided in Example B1.

The next experiment has as its target T2, PI3Kα (Homo sapiens, UniProt P42336).
T2 construct: purchased Reaction Biology Corporation
Briefly: PI3Kα isoform profiling (PI3Kδ protocol). Format: biochemical. The settings on record: for IC50: 10 dose IC50.
Text: as §1, §2

In a further experiment the test system is SUDHL6 cells. Briefly: Cell anti-proliferation assay ([3H] thymidine). Format: cell-based. The settings on record: Homo sapiens, SU-DHL-6, IC50 range. As to the method: Compounds of the invention were profiled in a B-lymphocyte anti-proliferation assay using SUDHL6 cells. On Day 0, SUDHL cells (7,500) were plated in RPMI media with FBS medium in a 96-well plate. On Day 1, Compounds of the invention were charged on top of the plated cells with a 1% DMSO final concentration. On Day 3, [^3H] Thymidine was added at 100 nCi/well. On Day 4, the cells were harvested using a cell harvester on a GF/C filter mat and dried in a hot air oven. Cell readout was obtained using a scintillation counter, and the activity of the compound was determined as an IC50 value.

In the next experiment the target is T3, ITK (Homo sapiens, UniProt Q08881).
T3 construct: purchased Reaction Biology Corporation
T3 sequence (Q08881 1-620): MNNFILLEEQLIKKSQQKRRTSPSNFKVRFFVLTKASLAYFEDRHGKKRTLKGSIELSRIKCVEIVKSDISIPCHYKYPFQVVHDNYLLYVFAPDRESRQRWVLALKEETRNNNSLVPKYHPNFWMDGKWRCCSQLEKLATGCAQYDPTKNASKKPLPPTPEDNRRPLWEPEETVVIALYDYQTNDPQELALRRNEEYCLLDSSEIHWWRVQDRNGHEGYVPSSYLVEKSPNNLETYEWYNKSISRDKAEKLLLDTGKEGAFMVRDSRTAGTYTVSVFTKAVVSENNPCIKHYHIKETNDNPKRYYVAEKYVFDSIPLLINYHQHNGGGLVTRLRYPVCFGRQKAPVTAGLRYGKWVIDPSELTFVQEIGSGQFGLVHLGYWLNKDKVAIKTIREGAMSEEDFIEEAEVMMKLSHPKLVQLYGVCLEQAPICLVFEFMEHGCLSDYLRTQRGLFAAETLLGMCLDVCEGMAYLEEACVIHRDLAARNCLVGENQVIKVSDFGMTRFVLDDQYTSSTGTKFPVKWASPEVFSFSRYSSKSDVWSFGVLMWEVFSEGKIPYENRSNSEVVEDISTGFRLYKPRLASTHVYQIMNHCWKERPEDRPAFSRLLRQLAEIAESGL
Briefly: ITK kinase profiling (BTK protocol). Format: biochemical. The settings on record: for IC50: 10 dose IC50; for ITK @ 0.3 μM (% Inh): 0.3 μM compound. The method, then: BTK assay: In vitro profiling protein kinases was performed using the “HotSpot” assay platform. Briefly, specific kinase/substrate pairs along with required cofactors were prepared in reaction buffer. Compounds were prepared as 10 mM stock solutions in DMSO. Compounds were delivered into the reaction, followed 15-20 minutes later by addition of a mixture of ATP (Sigma, St. Louis Mo.) and ^33P ATP (Perkin Elmer, Waltham Mass.) to a final concentration of 10 μM. […] IC50 values and curve fits were obtained using Prism (GraphPad Software). Buffer Conditions: 20 mM Hepes (pH 7.5), 10 mM MgCl2, 1 mM EGTA, 0.02% Brij35, 0.02 mg/mL BSA, 0.1 mM Na3VO4, 2 mM DTT, 1% DMSO.

Molecules are shown by their SMILES.

T2 sequence (P42336 whole entry): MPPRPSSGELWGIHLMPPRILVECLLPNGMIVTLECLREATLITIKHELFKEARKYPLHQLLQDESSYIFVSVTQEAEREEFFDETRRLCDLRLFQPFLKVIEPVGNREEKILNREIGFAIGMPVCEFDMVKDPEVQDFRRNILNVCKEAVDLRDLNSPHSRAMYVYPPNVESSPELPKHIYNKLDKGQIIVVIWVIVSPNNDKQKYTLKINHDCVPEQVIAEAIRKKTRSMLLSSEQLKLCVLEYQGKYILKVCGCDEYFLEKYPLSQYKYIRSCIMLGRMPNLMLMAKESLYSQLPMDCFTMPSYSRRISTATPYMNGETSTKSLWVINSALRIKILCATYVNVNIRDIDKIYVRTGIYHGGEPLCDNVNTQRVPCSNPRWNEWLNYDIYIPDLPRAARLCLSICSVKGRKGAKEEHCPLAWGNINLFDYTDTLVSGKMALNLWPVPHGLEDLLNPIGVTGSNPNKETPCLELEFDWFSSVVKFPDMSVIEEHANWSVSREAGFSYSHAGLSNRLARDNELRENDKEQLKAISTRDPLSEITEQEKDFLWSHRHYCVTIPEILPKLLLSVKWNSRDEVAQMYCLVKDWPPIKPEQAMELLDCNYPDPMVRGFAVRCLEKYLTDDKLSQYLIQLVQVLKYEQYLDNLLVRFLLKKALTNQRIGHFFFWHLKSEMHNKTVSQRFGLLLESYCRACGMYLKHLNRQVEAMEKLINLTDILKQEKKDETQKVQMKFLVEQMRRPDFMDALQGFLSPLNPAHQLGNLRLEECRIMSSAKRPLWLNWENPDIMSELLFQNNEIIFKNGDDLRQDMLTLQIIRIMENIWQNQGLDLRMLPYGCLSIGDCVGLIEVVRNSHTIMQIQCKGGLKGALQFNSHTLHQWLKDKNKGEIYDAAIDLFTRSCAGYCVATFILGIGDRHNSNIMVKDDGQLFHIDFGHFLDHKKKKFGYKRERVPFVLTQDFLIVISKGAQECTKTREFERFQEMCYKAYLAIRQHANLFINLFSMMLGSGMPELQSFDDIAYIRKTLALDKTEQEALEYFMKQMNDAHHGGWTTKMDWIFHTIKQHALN
T2 sequence (P27986 whole entry partner): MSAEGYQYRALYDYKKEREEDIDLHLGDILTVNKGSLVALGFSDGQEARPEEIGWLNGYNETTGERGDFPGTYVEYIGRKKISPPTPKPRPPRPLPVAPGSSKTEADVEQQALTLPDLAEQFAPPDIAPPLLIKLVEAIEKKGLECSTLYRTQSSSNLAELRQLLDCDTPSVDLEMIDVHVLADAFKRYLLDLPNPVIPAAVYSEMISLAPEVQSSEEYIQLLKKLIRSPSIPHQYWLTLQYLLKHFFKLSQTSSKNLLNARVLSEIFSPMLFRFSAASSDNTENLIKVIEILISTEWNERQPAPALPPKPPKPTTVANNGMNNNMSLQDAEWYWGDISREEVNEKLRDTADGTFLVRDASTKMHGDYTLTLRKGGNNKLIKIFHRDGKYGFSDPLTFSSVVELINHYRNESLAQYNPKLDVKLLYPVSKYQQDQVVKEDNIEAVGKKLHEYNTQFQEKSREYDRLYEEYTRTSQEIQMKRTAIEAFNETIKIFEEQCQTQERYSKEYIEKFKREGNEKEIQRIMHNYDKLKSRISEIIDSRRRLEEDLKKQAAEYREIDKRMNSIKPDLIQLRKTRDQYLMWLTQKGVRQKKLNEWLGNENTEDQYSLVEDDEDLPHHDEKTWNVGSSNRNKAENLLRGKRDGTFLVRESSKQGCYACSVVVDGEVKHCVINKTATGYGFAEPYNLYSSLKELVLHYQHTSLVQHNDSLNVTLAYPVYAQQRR
T1 sequence (P42338 whole entry): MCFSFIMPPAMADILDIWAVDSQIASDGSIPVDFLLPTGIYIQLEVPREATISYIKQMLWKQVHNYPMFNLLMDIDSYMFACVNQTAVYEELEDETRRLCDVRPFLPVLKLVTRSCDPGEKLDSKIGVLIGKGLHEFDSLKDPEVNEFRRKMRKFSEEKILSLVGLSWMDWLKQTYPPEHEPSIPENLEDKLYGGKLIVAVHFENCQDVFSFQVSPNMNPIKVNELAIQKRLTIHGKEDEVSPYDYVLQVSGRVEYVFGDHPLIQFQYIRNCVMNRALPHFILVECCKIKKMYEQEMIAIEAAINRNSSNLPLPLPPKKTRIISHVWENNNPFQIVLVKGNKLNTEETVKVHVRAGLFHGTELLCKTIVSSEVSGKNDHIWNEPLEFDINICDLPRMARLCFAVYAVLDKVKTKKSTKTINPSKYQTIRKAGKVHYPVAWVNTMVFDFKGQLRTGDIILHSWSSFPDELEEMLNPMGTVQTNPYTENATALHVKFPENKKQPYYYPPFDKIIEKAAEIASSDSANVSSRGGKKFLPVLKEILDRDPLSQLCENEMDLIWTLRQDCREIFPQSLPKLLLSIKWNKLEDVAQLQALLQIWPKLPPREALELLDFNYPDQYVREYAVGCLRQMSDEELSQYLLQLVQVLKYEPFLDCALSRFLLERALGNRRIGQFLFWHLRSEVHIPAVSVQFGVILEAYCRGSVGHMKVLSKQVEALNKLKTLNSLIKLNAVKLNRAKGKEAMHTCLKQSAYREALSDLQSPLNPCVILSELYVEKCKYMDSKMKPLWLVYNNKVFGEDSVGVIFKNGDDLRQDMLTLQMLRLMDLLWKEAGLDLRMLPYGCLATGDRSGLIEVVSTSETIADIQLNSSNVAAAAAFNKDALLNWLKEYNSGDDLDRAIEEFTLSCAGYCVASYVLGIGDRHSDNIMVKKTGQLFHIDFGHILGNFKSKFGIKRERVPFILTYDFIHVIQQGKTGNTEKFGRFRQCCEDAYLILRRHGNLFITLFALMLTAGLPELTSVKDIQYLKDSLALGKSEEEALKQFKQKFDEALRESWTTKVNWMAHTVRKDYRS
T1 sequence (P27986 whole entry partner): as the sequence (P27986 whole entry partner) above

As a reminder, the IC50 is the midpoint of a concentration-inhibition curve. In the case of `Nc1ncnc2c1c(-c1cc(O)cc(F)c1)nn2C1Cc2ccccc2C1` [compound 3, 3-(4-amino-1-(2,3-dihydro-1H-inden-2-yl)-1H-pyrazolo[3,4-d]pyrimidin-3-yl)-5-fluorophenol], the half-inhibitory concentration (IC50) on PI3Kβ is 90.8 nM; against PI3Kα it was 20.1 nM; in the experiment with SUDHL6 cells, 1000 to 10000 nM; against ITK, 46900 nM.

As for `Nc1ncnc2c1c(-c1ccc3cc[nH]c3c1)nn2C1CCc2ccccc2C1` (racemic) [compound 18, 3-(1H-indol-6-yl)-1-(1,2,3,4-tetrahydronaphthalen-2-yl)-1H-pyrazolo[3,4-d]pyrimidin-4-amine], the “PI3Kβ @ 0.3 μM (% Inh)” value on PI3Kβ stood at 34.21 % Inh. Besides, on PI3Kα (0.3 μM compound), the “PI3Kα @ 0.3 μM (% Inh)” value is listed as 33.14 % Inh. Further, the “ITK @ 0.3 μM (% Inh)” value at ITK is reported as −3.29 % Inh.

In the case of `Nc1ncnc2c1c(-c1ccc(Cl)c(O)c1)nn2C1Cc2ccccc2C1` [Compound No. 56, 5-[4-amino-1-(2,3-dihydro-1H-inden-2-yl)-1H-pyrazolo[3,4-d]pyrimidin-3-yl]-2-chlorophenol], the “PI3Kβ @ 0.3 μM (% Inh)” value at PI3Kβ was 27.87 % Inh. On PI3Kα, this compound came in with a 50% inhibitory concentration (IC50) of 186 nM. Also, the “ITK @ 0.3 μM (% Inh)” value at ITK was 8.82 % Inh.

With `Nc1ncnc2c1c(-c1ccc(F)c(O)c1)nn2C1Cc2ccccc2C1` [Compound No. 29, 5-(4-amino-1-indan-2-yl-pyrazolo[3,4-d]pyrimidin-3-yl)-2-fluoro-phenol], the IC50 on PI3Kβ was 418 nM; against PI3Kα, 73.1 nM; at ITK it was more than 100000 nM.

On to `Nc1ncnc2c1c(-c1cc(O)c(F)c(F)c1)cn2C1Cc2ccccc2C1` [Compound No. 101, 5-[4-amino-7-(2,3-dihydro-1H-inden-2-yl)-7H-pyrrolo[2,3-d]pyrimidin-5-yl]-2,3-difluorophenol], for which the “PI3Kβ @ 0.3 μM (% Inh)” value on PI3Kβ is reported as 41.93 % Inh. Besides, at PI3Kα, the IC50 is 120 nM. Also, the “ITK @ 0.3 μM (% Inh)” value at ITK was −2.77 % Inh.

As for `Nc1ncnc2c1c(-c1cc(O)cc(F)c1)nn2C1CCc2ccccc2C1` (centres unmarked) [compound 6, 3-(4-amino-1-(1,2,3,4-tetrahydronaphthalen-2-yl)-1H-pyrazolo[3,4-d]pyrimidin-3-yl)-5-fluorophenol], the IC50 on PI3Kβ is 105 nM; at PI3Kα, 20.1 nM; in the experiment with SUDHL6 cells, 1000 to 10000 nM; against ITK, 16400 nM.

For `Nc1ncnc2c1c(-c1cc(O)c(Cl)c(Cl)c1)cn2C1Cc2ccccc2C1` [Compound No. 107, 5-[4-amino-7-(2,3-dihydro-1H-inden-2-yl)-7H-pyrrolo[2,3-d]pyrimidin-5-yl]-2,3-dichlorophenol], the “PI3Kβ @ 0.3 μM (% Inh)” value on PI3Kβ was found to be 49.12 % Inh. Inhibition against PI3Kα was half-maximal at 56.5 nM (IC50). Further, the “ITK @ 0.3 μM (% Inh)” value on ITK is given as −5.41 % Inh.

As to `Nc1ncnc2c1c(-c1cc(F)c3c(c1)NCCO3)nn2C1Cc2ccccc2C1` [Compound No. 84, 1-(2,3-dihydro-1H-inden-2-yl)-3-(8-fluoro-3,4-dihydro-2H-1,4-benzoxazin-6-yl)-1H-pyrazolo[3,4-d]pyrimidin-4-amine], at PI3Kβ, the “PI3Kβ @ 0.3 μM (% Inh)” value is 27.83 % Inh. Further, at PI3Kα, the IC50 came out at 638 nM. In addition, the “ITK @ 0.3 μM (% Inh)” value on ITK was −2.3 % Inh.

As to `Nc1ncnc2c1c(-c1cc(O)c(F)c(Cl)c1)cn2C1Cc2ccccc2C1` [compound 110, 5-[4-amino-7-(2,3-dihydro-1H-inden-2-yl)-7H-pyrrolo[2,3-d]pyrimidin-5-yl]-3-chloro-2-fluorophenol], at PI3Kβ, the “PI3Kβ @ 0.3 μM (% Inh)” value stood at 50.12 % Inh. The same compound came in with a concentration for half-maximal inhibition (IC50) against PI3Kα of 83.5 nM. The “ITK @ 0.3 μM (% Inh)” value at ITK is recorded as −3.49 % Inh.

The values above are taken from patent US20210317140A1, “Heterocyclic Compounds and Methods of Use” (MEDIVATION TECHNOLOGIES, INC, priority 2013, published 2021).
